Measured values reported in US20130017537A1, “METHOD OF IN-VITRO IMMUNOASSAY” (BASF Beauty Care Solutions France S.A.S., priority 2011, published 2013).

System: type V collagen in the ECM
Experiment: Influence of the lysis solution on the assay of type V collagen in the ECM
Format: cell-based, human
Details: for Ratio: Coll/DNA % (20 mM = 100.00): Table 3.3
Procedure: Thus, normal human fibroblasts obtained from abdominal biopsies were seeded in a 96-well plate and cultured in a defined medium (FGM) to 100% confluency.
After 48 hours of culture postconfluency at 37° C. under 0.5% CO2, the culture medium was collected.
The time of application of the lysis solution tested was 10 minutes at room temperature and with stirring.
The collagen V in the ECM was assayed directly on the ECM by using an anticollagen V antibody. A secondary antibody conjugated to europium was used with a detection reagent and the fluorescence was measured. (Delfia® kit—Perkin Elmer).
The experiment was repeated and the lysis solutions tested were as follows: • solution according to the invention NH4OH: 110 μl of an ammonium hydroxide solution at concentrations between 200 μM and 2 M. • Solution of monoethylamine at 20 Mm • Solution of diethylamine at 20 mM • Solution of triethylamine at 20 mM

N [NH4OH, ammonium hydroxide]
Ratio: Coll/DNA % (20 mM = 100.00) (NH4OH 200 μM): 117.43% | Ratio: Coll/DNA % (20 mM = 100.00) (NH4OH 2 mM): 131.56% | Ratio: Coll/DNA % (20 mM = 100.00) (NH4OH 20 mM): 100.00% | Ratio: Coll/DNA % (20 mM = 100.00) (NH4OH 200 mM): 86.47% | Ratio: Coll/DNA % (20 mM = 100.00) (NH4OH 2M): 67.67% | Ratio: Coll/DNA % (NH4OH = 100) (repeat experiment, Table 3.2): 100%
